Experimental data reported in PMC12348844, “Anti-Trypanosoma cruzi Potential of New Pyrazole-Imidazoline Derivatives” (Molecules, 2025).
Where two headings read alike, the source gives them in different places.

Columns and labels:
[1] = Cytotoxicity assay, Vero cells (CellTiter-Glo); format: cell-based; conditions: African green monkey, mean ± SD
Method: Vero cells, obtained from the Rio de Janeiro Cell Bank (BCRT code 0245) and maintained through weekly subculturing with a dissociation solution containing 0.25% trypsin-EDTA, initiated once the monolayer reached an 80–100% confluence. Following harvesting, the cells were washed and resuspended in RPMI 1640 medium enriched with 10% fetal bovine serum (FBS). Cultures were maintained at 37 °C in a 5% CO2-humidified incubator. These cultures were used for drug screening assays and for producing culture-derived trypomastigotes of T. cruzi.
Cytotoxicity assays were performed using Vero cells, which were seeded at a density of 1.5 × 10^4 cells per well in white 96-well plates with clear bottoms. Following a 24 h adhesion period, the cultures were incubated at 37 °C in a 5% CO2 atmosphere. […] After 72 h of incubation, cell viability was assessed by adding CellTiter-Glo reagent (Promega Corporation, Madison, WI, USA), which induces cell lysis and reacts with the released ATP to produce luminescence. The resulting luminescence was measured using a Glomax Multi-Detection plate reader (Promega Corporation, Madison, WI, USA). The half-maximal inhibitory concentration (CC50) for cell viability was then calculated using GraphPad Prism software version 8.2.1.

[2] = test system: T. cruzi Dm28c-Luc trypomastigotes; assay: Anti-T. cruzi in vitro assay, trypomastigotes (luminescence); format: cell-based; conditions: Trypanosoma cruzi, 24 h, mean ± SD
Method: (§1) The genetically modified Trypanosoma cruzi, clone Dm28c (TcI), expressing luciferase (Dm28c-Luc), was kindly provided by Dr. Cristina Henriques from Oswaldo Cruz Institute—Fiocruz. The parasites were maintained using Vero cell cultures in RPMI 1640 medium enriched with 10% FBS. At 4 days post-infection (dpi), the trypomastigotes released into the culture supernatant were harvested, subjected to centrifugation at 800× g for 20 min at 4 °C, and quantified with a Neubauer chamber. The isolated trypomastigotes were subsequently used for phenotypic screening, drug efficacy assessments employing a 3D cardiac model, washout experiments to evaluate reversibility, drug combination studies, and enzymatic assays.
Drug susceptibility assays were performed on T. cruzi Dm28c-Luc, a genetically engineered parasite expressing luciferase. The drug screening used both trypomastigotes and intracellular amastigotes. Trypomastigotes (1 × 10^6 parasites/well) were added to white 96-well plates with clear bottoms. […] The luminescence was measured using a Glomax Multi-Detection plate reader (Promega Corporation, Madison, WI, USA).

[3] = test system: T. cruzi Dm28c-Luc intracellular amastigotes; assay: Anti-T. cruzi in vitro assay, intracellular amastigotes in Vero cells (luminescence); format: cell-based, Trypanosoma cruzi; conditions: for IC50: Vero
Method: as §1
To evaluate the effect of pyrazole-imidazoline derivatives against intracellular amastigotes, Vero cells (1.5 × 10^4 cells/well) were cultured in a white 96-well plate with a clear bottom and subsequently infected with T. cruzi Dm28c-Luc at a 10:1 parasite-to-host cell ratio for 24 h. […] Parasite viability was measured by luminescence following the addition of luciferin (300 µg/mL). Background measurements (non-infected cultures incubated with luciferin, as well as luciferin-only controls) were performed to ensure the signal specifically originates from viable parasites. The IC50 and IC90 values, denoting the concentrations that achieve 50% and 90% reductions in viable parasites, respectively, were calculated using GraphPad Prism 8.2.1 software. Additionally, the selectivity index (SI) was calculated as the cytotoxic concentration (CC50) ratio in mammalian cells to the IC50 against T. cruzi, providing insight into the therapeutic window. Potency against intracellular amastigotes was evaluated using the formula 6—Log10 (IC50).

[4] = test system: T. cruzi cysteine protease; assay: Cysteine protease activity in trypomastigote protein extract (Z-Phe-Arg-AMC); format: biochemical, Trypanosoma cruzi; conditions: 90 min, 37 °C, 33.3, 100 and 300 µM tested
Method: Total proteins from T. cruzi Dm28c-Luc were extracted using a lysis buffer [100 mM Tris-HCl pH 8.0, 150 mM NaCl, 10% glycerol, 0.5% Triton X-100]. The protein concentration was quantified using the Bradford assay, with bovine serum albumin (BSA) used to establish the standard curve. For the assessment of cysteine protease activity, 5 μg of the protein extract was incubated in an acetate buffer [10 mM sodium acetate, pH 5.0], supplemented with 1 mM dithiothreitol (DTT) in a final volume of 100 μL. The reaction used a fluorogenic peptide substrate, N-benzoyloxycarbonyl-L-phenylalanyl-L-arginine 7-amino-4-methylcoumarin (Z-FR-AMC), at a concentration of 60 μM. Incubation was conducted at 37 °C for 90 min, with relative fluorescence changes measured using a SpectraMax M2e spectrophotometer (Molecular Devices, Sunnyvale, CA, USA). Inhibition assays were performed using three concentrations (33.3, 100, and 300 µM) of the promising candidate and trans-epoxysuccinyl-L-leucylamido(4-guanidino)butane (E-64), each analyzed separately. A control was included using a low DMSO concentration (≤1%). Enzymatic activity was expressed in µmol/min/mg of protein, with residual activity presented as a percentage.

[5] = Cytotoxicity in 3D cardiac spheroids (CellTiter-Glo); format: cell-based; conditions: Swiss Webster, mouse, 3D cardiac spheroids from fetal heart muscle cells, 15.6 to 500 µM
Method: Three-dimensional (3D) heart muscle cell cultures were obtained as previously described. Briefly, heart muscle cells were isolated from 18-day-old Swiss Webster mouse fetuses. The ventricular tissue was fragmented and enzymatically dissociated using a trypsin and collagenase type II solution. The isolated cells were seeded at a density of 2.5 × 10^4 cells/well in 96-well U-bottom microplates previously coated with 1% agarose. The cells were cultured in Dulbecco’s modified Eagle Medium (DMEM) enriched with 10% FBS, 2.5 mM CaCl2, 1 mM L-glutamine, 2% chicken embryo extract, and a cocktail of antibiotics. The cultures were maintained at 37 °C in a 5% CO2 atmosphere. After a 7-day culture period, the resulting fully developed spheroids were used to assess drug-induced cardiotoxicity and evaluate their efficacy against T. cruzi. […]
The cytotoxicity of the promising candidate was assessed using 3D cardiac spheroids, seeded at 2.5 × 10^4 cells per well. The cultures were treated with a series of concentrations as previously described, and the cell viability was measured using luminescence following the addition of CellTiter-Glo reagent (Promega Corporation, Madison, WI, USA). […] The data shown represents the mean value accompanied by standard deviations, calculated from at least three independent experiments, each performed in duplicate.

FC(F)(F)c1ccc(-n2cc(C3=NCCN3)cn2)cc1 [1k, 1-(4-trifluoromethylphenyl)-4-(4,5-dihydro-1H-imidazol-2-yl)-1H-pyrazole]
CC50 at 72 h [1]: 244 ± 21.1 µM | IC50 [2]: 72.2 ± 10.3 µM | IC90 [2]: > 100 µM | SI (selectivity index = CC50/IC50) ([3]; CC50 Vero cells / IC50 intracellular amastigotes): 73.9 | IC50 ([3]; Trypanosoma cruzi, 72 h, Dm28c-Luc in Vero cells, mean ± SD, read-out: Intracellular Amastigotes IC50): 3.3 ± 0.2 µM | IC50 ([3]; Trypanosoma cruzi, intracellular amastigotes, 6 − Log10(IC50), read-out: pIC50 (potency) (converted)): 3.98 µM | IC90 ([3]; Trypanosoma cruzi, 72 h, Dm28c-Luc in Vero cells, mean ± SD): 28.1 ± 0.4 µM | enhancement in anti-T. cruzi activity relative to the hit compound ([3]; hit compound = 5-amino-pyrazole-imidazoline): 5 fold | inhibition of cysteine protease activity [4]: 3.76% | CC50 at 72 h [5]: 173 ± 6.8 µM
